In article PMC11763059, “GENI as an AMPK Activator Binds α and γ Subunits and Improves the Memory Dysfunction of Alzheimer’s Disease Mouse Models via Autophagy and Neuroprotection” (Antioxidants, 2025):

What was measured:
[1] = target: T1, AMPK-WT (His-tagged AMPK containing α1β1γ1 protein) (Rattus norvegicus, UniProt P54645+P80385); assay: SPR analysis of binding to purified wild-type AMPK
T1 construct: His (N); made in house
Experimental: Mammalian AMPK subunits (His-α1, β1, and γ1) were cloned into a pET-3d vector, and protein expression and purification were similar to the literature.
SPR analysis was performed with a Biacore T200 instrument (GE Healthcare). Firstly, the purred His-tagged AMPK containing α1β1γ1 protein was captured onto an activated carboxymethylated 5 (CM5) chip using amine coupling to levels ranging from 4000 RU to 6000 RU. Secondly, GENI was dissolved in PBS-P buffer solution (0.05% (v/v) Tween 20 and PBS), and the concentration of GENI was 64 μM. […] The sample was filtered by pumping through a […] membrane. A gradient concentration of GENI was injected at a flow rate of 30 μL/min in a running buffer (0.05% (v/v) Tween 20 and PBS). The data were analyzed with Biacore evaluation software (T200 version 2.0) and fitted to the 1:1 Langmuir binding model, and the kinetic parameters were derived.

PI3K = assay: Drug affinity responsive target stability (DARTS), PI3K; format: binding; details: 0.1–100 μM GENI, protein: pronase 50:1
Experimental: Cells were lysed by RIPA lysis buffer, and the protein concentration was measured. The lysate was divided into six groups. Before incubation with protease (protein: pronase = 50:1 w/w for PI3K and AMPK detection, 5:1 for MAPK detection, 100:1 for p53 detection) for 25 min in 25 °C, 0.1–100 μM GENI was added to lysates and incubated for 2 h at room temperature. The samples were mixed with loading buffer and then separated on 8% SDS-PAGE for immunoblotting analysis.

PC12 cells = assay: RT-PCR analysis of gene expression in PC12 cells; format: cell-based, Rat; details: PC12 cells under H2O2 induction
Experimental: RT-PCR analysis was performed as described in the material and methods section in Supplementary Information.
Supplementary information […]
1.1. Real-time polymerase chain reaction (RT-PCR) analysis
PC12 cells (2 × 106) were seeded in 60 mm dishes and treated with RES (10 μM) or GENI (3 or 10μM) for 24h. Total RNA was extracted with TRIzol Reagent (Beijing Cowin Biotech Company, Beijing, China). RNA content was determined using an Eppendorf Biophotometer Plus (Eppendorf Company, Hamburg, Germany). Transcription was performed using 5 μg of total RNA, Oligo (dT)20 primer and reverse transcriptase (Beijing Cowin Biotech Company, Beijing, China). Transcript levels were quantified by real-time PCR (AB SCIEX, Massachusetts, USA) and SYBR Premix EX Taq™ (Takara, Otsu, Japan). Primers (Sangon Biotech Co. Ltd., Shanghai, China) used in this study are given in Supplementary Table S3. The thermocycling parameters for PC12 cells were as follows: SOD1 and SOD2: 95 ℃ for 2 min, then 40 cycles, 54 ℃ for 35 seconds; Bcl-x1 and Nrf2: 95 ℃ for 2 min, then 40 cycles, 95 ℃ for 15 seconds, 60 ℃ […]
for 15 seconds, 68 ℃ for 20 seconds. All results were normalized to GAPDH RNA levels, and relative mRNA transcript levels were calculated using the ΔΔCt formula. […]
For NO content evaluation, firstly, the NO assay kit was removed, and Griess Reagents I and II were warmed to room temperature. The standard substance was diluted with cell culture solution to 0, 1, 2, 5, 10, 20, 40, 60 and 100 μM. Secondly, 50 μL of standard reagent and the diluted sample were added into a 96-well plate. […]
For IL-6 content evaluation, we prepared samples, standards and biotinylated antibody working […]
15.625 and 0 pg/mL for use, and blank holes were set. The 100 μL sample or standard substance of different concentrations was added to the corresponding hole, and about 50 μL of biotinylated antibody working liquid was added to the sample and standard substance hole. The reaction hole was sealed with sealing plate adhesive paper. The working liquid of the enzyme conjugate was prepared 30 min in advance by incubating at room temperature with a 300 rpm micro-oscillator for 120 min. The sample was placed at room temperature away from light, and the board was washed five times after incubation. In addition to the blank holes, 100 μL of enzyme conjugate working liquid was added to each hole, and the reaction holes were sealed with plate adhesive paper. The board was incubated at room temperature with a 300 rpm micro-oscillator for 60 min and then washed five times. […] About 100 μL of termination solution was added to each hole, and we measured the OD450 value immediately after mixing with a microplate reader (BioTek, California, USA).

BV-2 cells = assay: IL-6 ELISA and NO assay in BV-2 cell culture supernatant; format: cell-based, murine; details: LPS 1 μg/mL
Experimental: ELISA analysis for NO and interleukin-6 (IL-6) was performed according to the manufacturer described in the material and methods section in Supplementary Information. […]
for 15 seconds, 68 ℃ for 20 seconds. All results were normalized to GAPDH RNA levels, and relative mRNA transcript levels were calculated using the ΔΔCt formula.
1.2. Enzyme-linked immunosorbent assay
BV-2 cells were treated with LPS (1 μg/mL) in the absence or presence of GENI (1, 3 and 10 μM). The cell supernatant was collected at different time points for proinflammatory mediator assay (8 h for IL-6 and 24 h for NO). NO production was quantified using an NO assay kit (S0021S, Beyotime, China), and IL-6 was detected using commercial ELISA kits (EM004, ExCell, China) according to the manufacturer’s instructions.
For NO content evaluation, firstly, the NO assay kit was removed, and Griess Reagents I and II were warmed to room temperature. The standard substance was diluted with cell culture solution to 0, 1, 2, 5, 10, 20, 40, 60 and 100 μM. […] The absorbance was determined with a microplate reader (BioTek, California, USA) at 540 nm. […]
15.625 and 0 pg/mL for use, and blank holes were set. […] About 100 μL of termination solution was added to each hole, and we measured the OD450 value immediately after mixing with a microplate reader (BioTek, California, USA).

T1 sequence (P54645 13-559 limits assumed): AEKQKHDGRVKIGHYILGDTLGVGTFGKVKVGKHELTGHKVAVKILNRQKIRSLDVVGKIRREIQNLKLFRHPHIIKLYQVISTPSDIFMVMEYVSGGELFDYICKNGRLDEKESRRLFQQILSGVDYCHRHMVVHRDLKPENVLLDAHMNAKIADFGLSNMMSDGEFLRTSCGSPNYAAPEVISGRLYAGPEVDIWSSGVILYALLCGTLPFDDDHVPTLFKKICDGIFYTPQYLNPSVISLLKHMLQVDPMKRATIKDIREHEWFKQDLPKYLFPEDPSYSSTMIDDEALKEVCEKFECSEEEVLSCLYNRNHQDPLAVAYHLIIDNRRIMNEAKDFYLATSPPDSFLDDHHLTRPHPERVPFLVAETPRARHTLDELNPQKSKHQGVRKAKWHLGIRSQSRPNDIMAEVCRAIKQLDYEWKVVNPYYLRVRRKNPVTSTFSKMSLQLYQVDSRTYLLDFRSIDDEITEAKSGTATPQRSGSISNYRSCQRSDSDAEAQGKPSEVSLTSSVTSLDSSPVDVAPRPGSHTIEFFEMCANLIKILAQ
T1 sequence (P80386 whole entry partner): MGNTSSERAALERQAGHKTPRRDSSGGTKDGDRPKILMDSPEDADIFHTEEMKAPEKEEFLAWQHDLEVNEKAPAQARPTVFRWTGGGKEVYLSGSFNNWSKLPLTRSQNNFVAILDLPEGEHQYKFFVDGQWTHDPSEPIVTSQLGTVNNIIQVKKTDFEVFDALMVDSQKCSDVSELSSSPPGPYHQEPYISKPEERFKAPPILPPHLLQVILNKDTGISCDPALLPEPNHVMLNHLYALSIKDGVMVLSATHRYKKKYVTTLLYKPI
T1 sequence (P80385 whole entry): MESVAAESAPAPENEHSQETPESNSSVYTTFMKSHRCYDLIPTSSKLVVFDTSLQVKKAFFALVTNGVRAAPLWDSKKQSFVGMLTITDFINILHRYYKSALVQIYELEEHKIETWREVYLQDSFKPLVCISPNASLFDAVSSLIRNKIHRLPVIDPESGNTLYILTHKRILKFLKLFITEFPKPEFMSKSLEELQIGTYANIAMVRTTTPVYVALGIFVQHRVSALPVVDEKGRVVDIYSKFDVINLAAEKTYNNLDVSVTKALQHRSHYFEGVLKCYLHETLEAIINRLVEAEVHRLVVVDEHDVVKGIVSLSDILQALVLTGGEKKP

CC(C)CCOC(=O)C1=CO[C@@H](O[C@@H]2O[C@H](CO)[C@@H](O)[C@H](O)[C@H]2O)C2C(CO)=CCC12 (stereo partly drawn) [GENI, Geniposidic 4-isoamyl ester]
Kd ([1]; 1:1 Langmuir binding model): 1070 nM
kon ([1]; association rate, read-out: Ka): 2320 M⁻¹ s⁻¹
stability of PI3K against pronase (DARTS) (PI3K): no obvious effect
abundance of Bcl-x1 mRNA (PC12 cells): significantly increased
abundance of Nrf2 mRNA (PC12 cells): significantly increased
gene expression of SOD1 (PC12 cells; GENI 3 or 10 μM 24 h): increased
gene expression of SOD2 (PC12 cells; GENI 3 or 10 μM 24 h): increased
secretion of LPS-stimulated pro-inflammatory IL-6 (BV-2 cells; 8 h): significantly reduced
production of NO (BV-2 cells; 24 h): significantly reduced
